Laboratory results from patent publication US11130769B2 (Prelude Therapeutics Incorporated, priority 2018, dated 2021).
pIC50, pKi: −log10 of the molar value.

Experiments:
[1] = system: H929 cells; experiment: Cell viability assay (H929 10 FBS); format: cell-based; conditions: Homo sapiens, NCI-H929, 24 hours, read-out: H929_10FBS IC50
Procedure, shortened: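 H929 cells, 4000/well, in RPMI 1640 with 10% FBS, sodium pyruvate, HEPES and glucose were exposed to compound 24 h at 37 °C. Viability read as luminescence after 30-60 min at RT with CellTiter-Glo or ATPlite 1 Step.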

[2] = target: MCL-1 (Homo sapiens (Human), UniProt Q07820); experiment: Cell free Mcl-1:Bim affinity assay (fluorescence polarization competition); format: binding; conditions: 15 nM MCL-1, 5 nM FITC-Bim, 1 hour at room temperature; class symbols; read-out: BIM_Ki
Procedure, shortened: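 Compounds competed with FITC-labelled Bim peptide (5 nM) for MCL-1 (15 nM) in HEPES/NaCl buffer with 1% DMSO, 1 h at room temperature. Fluorescence polarization (535 nm emission) gave % inhibition versus DMSO and positive controls; IC50 from 10-point curves, converted to Ki by the Nikolovska-Coleska equation.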

Sequence of MCL-1 (Q07820 whole entry): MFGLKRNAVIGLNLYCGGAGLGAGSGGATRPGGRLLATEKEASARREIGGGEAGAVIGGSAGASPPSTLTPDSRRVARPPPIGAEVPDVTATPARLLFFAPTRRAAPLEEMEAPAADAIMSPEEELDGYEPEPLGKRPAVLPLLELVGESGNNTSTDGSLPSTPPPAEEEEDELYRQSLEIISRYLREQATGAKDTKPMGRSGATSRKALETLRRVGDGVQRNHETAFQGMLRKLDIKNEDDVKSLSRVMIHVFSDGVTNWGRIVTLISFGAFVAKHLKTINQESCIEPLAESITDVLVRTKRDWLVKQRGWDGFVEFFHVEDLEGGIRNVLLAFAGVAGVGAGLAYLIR

pIC50 [1]	pKi [2]	SMILES
> 6.30	> 9.00	C[C@@H]1CN(C(=O)O[C@H]2/C=C/COC(C)(C)C(=O)NS(=O)(=O)c3ccc4c(c3)N(C[C@@H]3CC[C@H]32)C[C@@]2(CCCc3cc(Cl)ccc32)CO4)CCN1 [Example 175, [(3R,6R,7S,8E,22S)-6′-Chloro-12,12-dimethyl-13,15,15-trioxo-spiro[11,20-dioxa-15-thia-1,14-diazatetracyclo[14.7.2.03,6.019,24]pentacosa-8,16,18,24-tetraene-22,1′-tetralin]-7-yl] (3R)-3-methylpiperazine-1-carboxylate]
> 6.30	> 9.00	C[C@H]1CN(C(=O)O[C@H]2/C=C/COC(C)(C)C(=O)NS(=O)(=O)c3ccc4c(c3)N(C[C@@H]3CC[C@H]32)C[C@@]2(CCCc3cc(Cl)ccc32)CO4)CCN1 [Example 176, [(3R,6R,7S,8E,22S)-6′-Chloro-12,12-dimethyl-13,15,15-trioxo-spiro[11,20-dioxa-15-thia-1,14-diazatetracyclo[14.7.2.03,6.019,24]pentacosa-8,16,18,24-tetraene-22,1′-tetralin]-7-yl] (3S)-3-methylpiperazine-1-carboxylate]
> 6.30	7.00 to 9.00	CC1(C)OC/C=C/[C@H](OC(=O)N2CCN(c3ccccn3)CC2)[C@@H]2CC[C@H]2CN2C[C@@]3(CCCc4cc(Cl)ccc43)COc3ccc(cc32)S(=O)(=O)NC1=O [Example 177, [(3R,6R,7S,8E,22S)-6′-Chloro-12,12-dimethyl-13,15,15-trioxo-spiro[11,20-dioxa-15-thia-1,14-diazatetracyclo[14.7.2.03,6.019,24]pentacosa-8,16,18,24-tetraene-22,1′-tetralin]-7-yl] 4-(2-pyridyl)piperazine-1-carboxylate]
> 6.30	> 9.00	CC1(C)OC/C=C/[C@H](OC(=O)NCCc2cccnc2)[C@@H]2CC[C@H]2CN2C[C@@]3(CCCc4cc(Cl)ccc43)COc3ccc(cc32)S(=O)(=O)NC1=O [Example 178, [(3R,6R,7S,8E,22S)-6′-Chloro-12,12-dimethyl-13,15,15-trioxo-spiro[11,20-dioxa-15λ^6-thia-1,14-diazatetracyclo[14.7.2.0^3,6.0^19,24]pentacosa-8,16,18,24-tetraene-22,1′-tetralin]-7-yl] N-[2-(3-pyridyl)ethyl]carbamate]
> 6.30	> 9.00	CC1(C)OC/C=C/[C@H](OC(=O)NCC(F)F)[C@@H]2CC[C@H]2CN2C[C@@]3(CCCc4cc(Cl)ccc43)COc3ccc(cc32)S(=O)(=O)NC1=O [Example 179, [(3R,6R,7S,8E,22S)-6′-Chloro-12,12-dimethyl-13,15,15-trioxo-spiro[11,20-dioxa-15-thia-1,14-diazatetracyclo[14.7.2.03,6.019,24]pentacosa-8,16,18,24-tetraene-22,1′-tetralin]-7-yl] N-(2,2-difluoroethyl)carbamate]
> 6.30	> 9.00	CC1(C)OC/C=C/[C@H](OC(=O)NCCN2CCOCC2)[C@@H]2CC[C@H]2CN2C[C@@]3(CCCc4cc(Cl)ccc43)COc3ccc(cc32)S(=O)(=O)NC1=O [Example 180, [(3R,6R,7S,8E,22S)-6′-Chloro-12,12-dimethyl-13,15,15-trioxo-spiro[11,20-dioxa-15-thia-1,14-diazatetracyclo[14.7.2.03,6.019,24]pentacosa-8,16,18,24-tetraene-22,1′-tetralin]-7-yl] N-(2-morpholinoethyl)carbamate]
> 6.30	> 9.00	CC(C)NC(=O)O[C@H]1/C=C/COC(C)(C)C(=O)NS(=O)(=O)c2ccc3c(c2)N(C[C@@H]2CC[C@H]21)C[C@@]1(CCCc2cc(Cl)ccc21)CO3 [Example 181, [(3R,6R,7S,8E,22S)-6′-Chloro-12,12-dimethyl-13,15,15-trioxo-spiro[11,20-dioxa-15-thia-1,14-diazatetracyclo[14.7.2.03,6.019,24]pentacosa-8,16,18,24-tetraene-22,1′-tetralin]-7-yl] N-isopropylcarbamate]
> 6.30	> 9.00	CC(C)CNC(=O)O[C@H]1/C=C/COC(C)(C)C(=O)NS(=O)(=O)c2ccc3c(c2)N(C[C@@H]2CC[C@H]21)C[C@@]1(CCCc2cc(Cl)ccc21)CO3 [Example 182, [(3R,6R,7S,8E,22S)-6′-Chloro-12,12-dimethyl-13,15,15-trioxo-spiro[11,20-dioxa-15-thia-1,14-diazatetracyclo[14.7.2.03,6.019,24]pentacosa-8,16,18,24-tetraene-22,1′-tetralin]-7-yl] N-isobutylcarbamate]
> 6.30	> 9.00	CC1(C)OC/C=C/[C@H](OC(=O)NCC2CC2)[C@@H]2CC[C@H]2CN2C[C@@]3(CCCc4cc(Cl)ccc43)COc3ccc(cc32)S(=O)(=O)NC1=O [Example 183, [(3R,6R,7S,8E,22S)-6′-Chloro-12,12-dimethyl-13,15,15-trioxo-spiro[11,20-dioxa-15-thia-1,14-diazatetracyclo[14.7.2.03,6.019,24]pentacosa-8,16,18,24-tetraene-22,1′-tetralin]-7-yl] N-(cyclopropylmethyl)carbamate]
> 6.30	> 9.00	CC1(C)OC/C=C/[C@H](OC(=O)NC2CCC2)[C@@H]2CC[C@H]2CN2C[C@@]3(CCCc4cc(Cl)ccc43)COc3ccc(cc32)S(=O)(=O)NC1=O [Example 184, [(3R,6R,7S,8E,22S)-6′-Chloro-12,12-dimethyl-13,15,15-trioxo-spiro[11,20-dioxa-15-thia-1,14-diazatetracyclo[14.7.2.03,6.019,24]pentacosa-8,16,18,24-tetraene-22,1′-tetralin]-7-yl] N-cyclobutylcarbamate]
> 6.30	> 9.00	CC1(C)OC/C=C/[C@H](OC(=O)NC2CCOCC2)[C@@H]2CC[C@H]2CN2C[C@@]3(CCCc4cc(Cl)ccc43)COc3ccc(cc32)S(=O)(=O)NC1=O [Example 185, [(3R,6R,7S,8E,22S)-6′-Chloro-12,12-dimethyl-13,15,15-trioxo-spiro[11,20-dioxa-15-thia-1,14-diazatetracyclo[14.7.2.03,6.019,24]pentacosa-8,16,18,24-tetraene-22,1′-tetralin]-7-yl] N-tetrahydropyran-4-ylcarbamate]
> 6.30	> 9.00	CC(C)N1CCN(C(=O)O[C@H]2/C=C/COC(C)(C)C(=O)NS(=O)(=O)c3ccc4c(c3)N(C[C@@H]3CC[C@H]32)C[C@@]2(CCCc3cc(Cl)ccc32)CO4)CC1 [Example 186, [(3R,6R,7S,8E,22S)-6′-Chloro-12,12-dimethyl-13,15,15-trioxo-spiro[11,20-dioxa-15-thia-1,14-diazatetracyclo[14.7.2.03,6.019,24]pentacosa-8,16,18,24-tetraene-22,1′-tetralin]-7-yl] 4-isopropylpiperazine-1-carboxylate]
> 6.30	> 9.00	CC1(C)OC/C=C/[C@H](OC(=O)N2CCN(C3COC3)CC2)[C@@H]2CC[C@H]2CN2C[C@@]3(CCCc4cc(Cl)ccc43)COc3ccc(cc32)S(=O)(=O)NC1=O [Example 187, [(3R,6R,7S,8E,22S)-6′-Chloro-12,12-dimethyl-13,15,15-trioxo-spiro[11,20-dioxa-15-thia-1,14-diazatetracyclo[14.7.2.03,6.019,24]pentacosa-8,16,18,24-tetraene-22,1′-tetralin]-7-yl] 4-(oxetan-3-yl)piperazine-1-carboxylate]
